Experimental data taken from patent publication US20230113398A1, “INEXPENSIVE METAL-FREE ORGANIC REDOX FLOW BATTERY (ORBAT) FOR GRID-SCALE STORAGE” (UNIVERSITY OF SOUTHERN CALIFORNIA, priority 2013, published 2023).
In brackets after ≈: the same amount, converted by molar mass. Several values for one entry are separate records, joined by “and”; a condition that tells them apart may be missing. Equal entries are not always repeated.

Assay: Rotating disk electrode and cyclic voltammetry on glassy carbon, 1 mM compound in 1 M sulfuric acid
Assay type: physicochemical
Details: 1 M sulfuric acid
Experimental: Measurement of kinetic parameters and diffusion coefficients was conducted in a three-electrode cell consisting of a rotating glassy carbon disk working electrode, a platinum wire counter electrode, and a mercury/mercuric sulfate reference electrode (E° = +0.65 V). […] The solutions were de-aerated and kept under a blanket of argon gas throughout all the experiments. All measurements were conducted in the potentiodynamic mode (Versastat 300 potentiostat) at a scan rate of 5 mV s^-1 over a range of rotation rates (500 rpm to 3000 rpm). Impedance measurements were also made at each rotation rate. Cyclic voltammetry was conducted on a static glassy carbon electrode at a scan rate of 50 mV s^-1.
(§1) Where n is the number of electrons transferred, F, the Faraday constant, A, electrode area, Do, the diffusion coefficient, v, the kinematic viscosity of the solution and C*, the bulk concentration of the reactants. For n = 2, an active electrode area of 0.1925 cm^2, and a kinematic viscosity of the electrolyte of 0.01 cm^2 s^-1, we were able to evalulate the diffusion coefficient from the slope of the straight line plots in FIG. 11D.
(§2) To determine the kinetic parameters for the charge-transfer process, namely the rate constant and the apparent transfer coeffcient, the logarithm of the kinetic current (after correction for mass-transport losses) was plotted against the observed overpotentials greater than 100 mV, where the Tafel equation is applicable (Eq. 4 and FIG. 11E).
(§3) Where I is the current, Ilim is the limiting current, Iex is the exchange current density, Co and CR are the concentration of the oxidized and reduced species at the surface of the electrode, Co* and CR* are the bulk concentrations of the oxidized and reduced species, α is the transfer coefficient, n is the number of electrons transferred, F is the Faraday constant, E-Erev is the overpotential, R is the gas constant, and T is the temperature. The rate constant, ko , was obtained from the exchange current density (Eq. 5).
as §1, with “plots.” for “plots in FIG. 11D.”
as §2, with “equation derived from the Butler-Volmer Equation” for “equation”, “: […]” for “(Eq. 4 and FIG. 11E).”
as §3, with “using the relationship” for “(Eq. 5).”

Row | Standard Reduction Potentials: E°(formal) Measured | Compound
1 | 0.70 | O=S(=O)(O)c1cc(O)ccc1O [Hydroquinone sulfonic acid]
2 | 0.68 | Oc1ccc(O)cc1 [Hydroquinone]

Row | Compound | Standard Reduction Potentials: E°(formal) Measured
3 | O=C1C=C(S(=O)(=O)O)C=C(S(=O)(=O)O)C1=O [1,2-benzoquinone-3,5-disulfonic acid, 1,2-benzoquinone-3,5-disulfonic acid] | 0.87

Same assay, conditions: 1 M sulfuric acid, glassy carbon

Row | Compound | kinetic reversibility from cyclic voltammograms
4 | O=C1C=C(S(=O)(=O)O)C=C(S(=O)(=O)O)C1=O [1,2-benzoquinone-3,5-disulfonic acid, 1,2-benzoquinone-3,5-disulfonic acid] | rapid oxidation step, but a slower reduction step

Same assay, conditions: Table 5; 1 M sulfuric acid, Levich plot

Row | Diffusion Coefficient, (cm^2 s^-1) | Compound
5 | 4.28E-6 | O=S(=O)(O)c1cc(O)ccc1O [Hydroquinone sulfonic acid]
6 | 5.03E-6 | Oc1ccc(O)cc1 [Hydroquinone]

Row | Compound | Diffusion Coefficient, (cm^2 s^-1)
7 | O=C1C=C(S(=O)(=O)O)C=C(S(=O)(=O)O)C1=O [1,2-benzoquinone-3,5-disulfonic acid, 1,2-benzoquinone-3,5-disulfonic acid] | 3.80E-6

Same assay, conditions: Table 5; MSE E°=+0.65 V; 1 M sulfuric acid

Row | E½ vs. MSE, Volt [Volt] | Compound
8 | 0.17 | O=S(=O)(O)c1cc(O)ccc1O [Hydroquinone sulfonic acid]
9 | 0.02 | Oc1ccc(O)cc1 [Hydroquinone]

Row | Compound | E½ vs. MSE, Volt [Volt]
10 | O=C1C=C(S(=O)(=O)O)C=C(S(=O)(=O)O)C1=O [1,2-benzoquinone-3,5-disulfonic acid, 1,2-benzoquinone-3,5-disulfonic acid] | 0.45

Same assay, conditions: Table 5; Tafel analysis

Row | Transfer Coefficient, an | Compound
11 | 0.418 | O=S(=O)(O)c1cc(O)ccc1O [Hydroquinone sulfonic acid]
12 | 0.508 | Oc1ccc(O)cc1 [Hydroquinone]

Row | Compound | Transfer Coefficient, an
13 | O=C1C=C(S(=O)(=O)O)C=C(S(=O)(=O)O)C1=O [1,2-benzoquinone-3,5-disulfonic acid, 1,2-benzoquinone-3,5-disulfonic acid] | 0.582

Same assay, conditions: Table 5; glassy carbon RDE, 1 M sulfuric acid

Row | Exchange Current Density, (A cm^-2) | Compound
14 | 1.10E-5 | O=S(=O)(O)c1cc(O)ccc1O [Hydroquinone sulfonic acid]
15 | 5.09E-5 | Oc1ccc(O)cc1 [Hydroquinone]

Row | Compound | Exchange Current Density, (A cm^-2)
16 | O=C1C=C(S(=O)(=O)O)C=C(S(=O)(=O)O)C1=O [1,2-benzoquinone-3,5-disulfonic acid, 1,2-benzoquinone-3,5-disulfonic acid] | 3.00E-6

Same assay, conditions: Table 5; obtained from exchange current density

Row | Rate Constant, k° [cm/s] | Compound
17 | 0.000552 | O=S(=O)(O)c1cc(O)ccc1O [Hydroquinone sulfonic acid]
18 | 0.00236 | Oc1ccc(O)cc1 [Hydroquinone]

Row | Compound | Rate Constant, k° [cm/s]
19 | O=C1C=C(S(=O)(=O)O)C=C(S(=O)(=O)O)C1=O [1,2-benzoquinone-3,5-disulfonic acid, 1,2-benzoquinone-3,5-disulfonic acid] | 0.000155

Same assay, conditions: Table 7

Row | Tafel Slope, mV/decade, dη/d(log I) [mV/decade] | Compound | Diffusion Coefficient (cm2/sec) | Exchange Current density (A/cm^2)
20 | – | O=C1c2cccc(S(=O)(=O)O)c2C(=O)c2c1cccc2S(=O)(=O)O [1,8 Anthraquinone disulfonic acid] | 3.39E-6 cm2/sec | 1.60E-6
21 | – | O=C1c2ccc(S(=O)(=O)O)cc2C(=O)c2cc(S(=O)(=O)O)ccc21 [2,7 Anthraquinone disulfonic acid] | 1.82E-6 cm2/sec | 7.82E-7
22 | 63 | O=S(=O)(O)c1cc(O)ccc1O [Hydroquinone sulfonic acid] | 4.28E-6 cm2/sec | 2.59E-5
23 | 110 | Oc1ccc(O)cc1 [Hydroquinone] | 5.03E-6 cm2/sec and 5.4E-6 cm2/sec | 9.17E-5
24 | – | c1ccc2nccnc2c1 [Quinoxaline] | 1.36E-6 cm2/sec and 1.09E-6 cm2/sec | –
25 | 123 | Hydroquinone disulfonic acid | 3.80E-6 cm2/sec and 4.04E-6 cm2/sec | 3.47E-6

Row | Compound | Tafel Slope, mV/decade, dη/d(log I) [mV/decade] | Diffusion Coefficient (cm2/sec) | Exchange Current density (A/cm^2)
26 | O=c1[nH][nH]c(=O)c2ccccc12 [Phthalyl hydrazide] | 40 | 1.07E-6 cm2/sec | 3.03E-6
27 | Maleic hydrazide | 54 | 6.57E-6 cm2/sec | 5.86E-6

Same assay, conditions: Table 7; 1 M sulfuric acid

Row | Compound | E½ vs. MSE, Volt [Volt]
28 | O=C1c2cccc(S(=O)(=O)O)c2C(=O)c2c1cccc2S(=O)(=O)O [1,8 Anthraquinone disulfonic acid] | -0.70
29 | O=C1c2ccc(S(=O)(=O)O)cc2C(=O)c2cc(S(=O)(=O)O)ccc21 [2,7 Anthraquinone disulfonic acid] | -0.57
30 | O=S(=O)(O)c1cc(O)ccc1O [Hydroquinone sulfonic acid] | 0.17
31 | Oc1ccc(O)cc1 [Hydroquinone] | 0.02
32 | O=c1[nH][nH]c(=O)c2ccccc12 [Phthalyl hydrazide] | 0.5
33 | Hydroquinone disulfonic acid | 0.45
34 | Maleic hydrazide | 0.6

Same assay, conditions: vs. NHE; 1 M sulfuric acid

Row | Standard Reduction Potentials: Experimental (E½ values) vs. NHE | Compound
35 | 0.82 | O=S(=O)(O)c1cc(O)ccc1O [Hydroquinone sulfonic acid]
36 | 0.67 | Oc1ccc(O)cc1 [Hydroquinone]

Row | Compound | Standard Reduction Potentials: Experimental (E½ values) vs. NHE
37 | O=C1C=C(S(=O)(=O)O)C=C(S(=O)(=O)O)C1=O [1,2-benzoquinone-3,5-disulfonic acid, 1,2-benzoquinone-3,5-disulfonic acid] | 1.1

Assay: not given
Details: cited from earlier work

Row | Compound | Electrode Potential vs. NHE, V [V]
38 | O=C1C=CC(=O)C=C1 [1,4-benzoquinone (para), 1,4-benzoquinone] | 0.700
39 | O=C1C=C(S(=O)(=O)O)C(=O)c2ccccc21 [1,4-naphthaquinone-2-sulfonic acid] | 0.534
40 | O=C1C=CC(=O)c2ccccc21 [1,4-naphthaquinone] | 0.483
41 | O=C1c2ccccc2C(=O)c2c(O)cccc21 [1-hydroxy-9,10-anthraquinone] | 0.131
42 | O=C1C=C(O)C(=O)c2ccccc21 [2-hydroxy-1,4-naphthaquinone] | 0.357
43 | O=C1C=CC(=O)C(O)=C1 [2-hydroxyl 1,4-benzoquinone] | 0.596
44 | O=C1c2ccccc2C(=O)c2c1cccc2S(=O)(=O)O [9,10-anthraquinone-1-sulfonic acid] | 0.183

Assay: Solubility
Details: Solubility, Table 5

Row | solubility [mM] | Compound
45 | 800 (≈ 152 mg/mL) | O=S(=O)(O)c1cc(O)ccc1O [Hydroquinone sulfonic acid]
46 | 530 (≈ 58.4 mg/mL) | Oc1ccc(O)cc1 [Hydroquinone]

Row | Compound | solubility [mM]
47 | O=C1C=C(S(=O)(=O)O)C=C(S(=O)(=O)O)C1=O [1,2-benzoquinone-3,5-disulfonic acid, 1,2-benzoquinone-3,5-disulfonic acid] | 1000 (≈ 268 mg/mL)

Same assay, conditions: Solubility, Table 7

Row | solubility [mM] | Compound
48 | 800 (≈ 152 mg/mL) | O=S(=O)(O)c1cc(O)ccc1O [Hydroquinone sulfonic acid]
49 | 530 (≈ 58.4 mg/mL) | Oc1ccc(O)cc1 [Hydroquinone]
50 | > 7000 | c1ccc2nccnc2c1 [Quinoxaline]

Same assay, conditions: Table 7

Row | solubility [mM] | Compound
51 | 1000 | Hydroquinone disulfonic acid
